For 24 compounds, IC50 results are on record in patent US20130331378A1, “PYRAZOLOPYRIDINE DERIVATIVE OR PHARMACOLOGICALLY ACCEPTABLE SALT THEREOF” (KISSEI PHARMACEUTICAL CO., LTD., priority 2011, published 2013).

A word on the pIC50: it is the IC50 on a negative log10 scale, so that one unit is a factor of ten.

pIC50: −log10 of the molar value.

The target in this assay is T1, rat EP1 receptor (Rattus norvegicus, UniProt P70597).
T1 construct: expressed in transfected cells
T1 sequence (P70597 1-405): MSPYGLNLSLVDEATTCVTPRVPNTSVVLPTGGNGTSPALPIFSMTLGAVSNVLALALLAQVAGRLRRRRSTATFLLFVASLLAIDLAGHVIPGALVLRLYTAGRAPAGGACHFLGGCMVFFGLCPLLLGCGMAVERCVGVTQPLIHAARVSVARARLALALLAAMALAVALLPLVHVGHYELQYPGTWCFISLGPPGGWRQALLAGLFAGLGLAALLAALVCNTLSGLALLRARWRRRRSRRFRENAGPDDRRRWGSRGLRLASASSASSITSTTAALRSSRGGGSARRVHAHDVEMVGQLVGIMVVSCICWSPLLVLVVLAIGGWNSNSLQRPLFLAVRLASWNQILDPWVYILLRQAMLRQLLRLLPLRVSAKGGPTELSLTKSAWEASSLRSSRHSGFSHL
Description: Test for confirming EP1 receptor antagonistic effect: suppression of prostaglandin E2-induced rise in intracellular calcium concentration. The format is cell-based. The following applies: rat EP1 receptor-expressing COS-1 cells; prostaglandin E2 10 nM; Fluo 4-AM fluorescent signal; test compound 0.1 nM to 10 μM. On the procedure:
(1) Preparation of Rat EP1 Expression Vector
The first PCR was performed with Rat Kidney BD Marathon-Ready cDNA (Nippon Becton Dickinson Co., Ltd.) as a template using a forward primer represented by SEQ ID NO: 1 and a reverse primer represented by SEQ ID NO: 2 and using KOD-Plus-Ver 2.0 (Toyobo Co., Ltd.). The second PCR was further performed in a similar manner with this amplification product as a template using a forward primer represented by SEQ ID NO: 3 and a reverse primer represented by SEQ ID NO: 4. The amplification product obtained by the second PCR was incorporated into a vector (pcDNA3.1 D/V5-His-TOPO (registered trademark), Invitrogen Corporation). This vector with the incorporated amplification product was introduced to E. coli (One Shot TOP10 Competent Cell, Invitrogen Corporation) by a conventional method to perform transformation. This transformed E. coli was cultured for 1 day in an LB agar medium. After the culture, colonies were selected and cultured in an LB liquid medium containing 50 μg/mL of ampicillin. After the culture, the vector was purified using QIAprep Spin Miniprep Kit (Qiagen Corporation). The base sequence (SEQ ID NO: 5) of the inserted site in this vector was compared with the base sequence (Ptger1) of rat EP1 registered under Accession No. NM_013100 in a heretofore known database (NCBI) and consequently was completely identical except for 1 base. Moreover, an amino acid sequence translated from this base sequence was completely identical to the amino acid sequence of the rat EP1 receptor registered under Accession No. NP_037232 in NCBI. Thus, it was confirmed that the cloned gene sequence was the base sequence of the rat EP1 receptor and the obtained amino acid sequence was the rat EP1 receptor. The pcDNA3.1 D/V5-His-TOPO (registered trademark) in which the nucleic acid represented by SEQ ID NO: 5 was inserted was used as a rat EP1 expression vector.
(2) Preparation of Rat EP1 Receptor-Expressing Cell
COS-1 cells (Dainippon Sumitomo Pharma Co., Ltd.) were cultured at 37° C. in an incubator under 5% CO2 gas conditions using a D-MEM liquid medium (containing high glucose and L-glutamine, Invitrogen Corporation) supplemented with a penicillin-streptomycin solution (Invitrogen Corporation, final concentration: 100 U/mL as benzylpenicillin; 100 μg/mL as streptomycin) as antibiotics, MEM non-essential amino acids (Invitrogen Corporation, final concentration: 0.1 mM), and fetal bovine serum (Moregate Biotech, final concentration: 10%), until reaching confluence.
The cells that reached confluence were dissociated with 0.05% trypsin/0.53 mM EDTA.4Na (Invitrogen Corporation) and resuspended in the liquid medium. The resuspended cells were diluted with the liquid medium so that the spread ratio became 1:4 to 1:8, and were cultured.
The cells that reached confluence were dissociated with 0.05% trypsin/0.53 mM EDTA.4Na and resuspended in a D-MEM liquid medium (containing high glucose and L-glutamine, Invitrogen Corporation) supplemented with MEM non-essential amino acids (final concentration: 0.1 mM) and fetal bovine serum (final concentration: 10%). This resuspended cell suspension was prepared with a liquid medium so as to become the number of cells 5×10^4 cells/100 μL of the liquid medium/well in each well of a poly-D-lysine-coated 96-well microplate (BD BioCoat (registered trademark), Nippon Becton Dickinson Co., Ltd.), and this cell preparation was dispensed at 100 μL to each well and seeded. After the seeding, the cells were cultured at 37° C. in an incubator under 5% CO2 gas conditions. The introduction of the rat EP1 expression vector was performed by procedures shown below at the point in time when the cells for introduction of this rat EP1 expression vector adhered (approximately 2 hours after the seeding).
Lipofectamine 2000 (Invitrogen Corporation) was used for the introduction of the rat EP1 expression vector. […]
Turning to `COc1ccc2c(Cc3cccc(-c4nnn[nH]4)n3)c(-c3ccccc3)nn2c1` [Example 2-1, 6-Methoxy-2-phenyl-3-[[6-(1H-tetrazol-5-yl)pyridin-2-yl]methyl]pyrazolo[1,5-a]pyridine], the negative logarithm of the IC50 (pIC50) was 7.25.

As for `O=C(O)c1cccc(Cc2c(-c3ccccc3)nn3cc(Cl)ccc23)c1` [Example 3-2, 3-[(6-Chloro-2-phenylpyrazolo[1,5-a]pyridin-3-yl)methyl]benzoic acid], the pIC50 is 7.54. In the case of `COc1ccc2c(Cc3cccc(C(=O)O)c3)c(-c3ccccc3)nn2c1` [Example 3-4, 3-[(6-Methoxy-2-phenylpyrazolo[1,5-a]pyridin-3-yl)methyl]benzoic acid] it was 7.96. In the case of `COc1ccc2c(Cc3cccc(C(=O)O)n3)c(-c3ccccc3)nn2c1` [Example 3-5, 6-[(6-Methoxy-2-phenylpyrazolo[1,5-a]pyridin-3-yl)methyl]pyridine-2-carboxylic acid] it was 8.22; in that of `COc1ccc2c(Cc3ccc(C(=O)O)o3)c(-c3ccccc3)nn2c1` [Example 3-6, 5-[(6-Methoxy-2-phenylpyrazolo[1,5-a]pyridin-3-yl)methyl]furan-2-carboxylic acid], 7.22.

Consider `C=Cc1ccc2c(Cc3cccc(C(=O)O)n3)c(-c3ccccc3)nn2c1` [Example 3-11, 6-[(2-Phenyl-6-vinylpyrazolo[1,5-a]pyridin-3-yl)methyl]pyridine-2-carboxylic acid], for which the negative-log IC50 (pIC50) is 7.68. To `O=C(O)c1cccc(Cc2c(-c3ccccc3)nn3cc(Br)ccc23)n1` [Example 3-14, 6-[(6-Bromo-2-phenylpyrazolo[1,5-a]pyridin-3-yl)methyl]pyridine-2-carboxylic acid] belongs 7.96; to `COc1ccc2c(Cc3cccc(C(=O)O)n3)c(C(C)(C)C)nn2c1` [Example 3-15, 6-[(2-tert-Butyl-6-methoxypyrazolo[1,5-a]pyridin-3-yl)methyl]pyridine-2-carboxylic acid], 7.41; to `COc1ccc2c(Cc3cccc(C(=O)O)n3)c(C3CCCC3)nn2c1` [Example 3-18, 6-[(2-Cyclopentyl-6-methoxypyrazolo[1,5-a]pyridin-3-yl)methyl]pyridine-2-carboxylic acid], 6.77. On to `Cc1ccc2c(Cc3cccc(C(=O)O)n3)c(-c3ccccc3)nn2c1` [Example 3-21, 6-[(6-Methyl-2-phenylpyrazolo[1,5-a]pyridin-3-yl)methyl]pyridine-2-carboxylic acid], for which the pIC50 is 7.72. As for `O=C(O)c1cccc(Cc2c(-c3ccccc3)nn3cc(C(F)(F)F)ccc23)n1` [Example 3-22, 6-[[2-Phenyl-6-(trifluoromethyl)pyrazolo[1,5-a]pyridin-3-yl]methyl]pyridine-2-carboxylic acid], the pIC50 is 7.72. As to `COc1ccc2c(Cc3cccc(C(=O)O)n3)c(-c3ccc(F)cc3)nn2c1` [Example 3-24, 6-[[2-(4-Fluorophenyl)-6-methoxypyrazolo[1,5-a]pyridin-3-yl]methyl]pyridine-2-carboxylic acid], the negative-log IC50 (pIC50) was 7.80.

For `COc1ccc2c(Cc3cccc(C(=O)O)n3)c(-c3ccsc3)nn2c1` [Example 3-32, 6-[[6-Methoxy-2-(thiophen-3-yl)pyrazolo[1,5-a]pyridin-3-yl]methyl]pyridine-2-carboxylic acid], the negative logarithm of the IC50 (pIC50) was 7.37. In the case of `O=C(O)c1csc(Cc2c(-c3ccccc3)nn3cc(Cl)ccc23)n1` [Example 12-7] it was 6.96; in that of `CSc1ccc2c(Cc3cccc(C(=O)O)n3)c(-c3ccccc3)nn2c1` [Example 12-17, 6-[[6-(Methylthio)-2-phenylpyrazolo[1,5-a]pyridin-3-yl]methyl]pyridine-2-carboxylic acid], 7.06; in that of `CC(C)(C)c1nn2cc(Cl)ccc2c1Cc1cccc(C(=O)O)n1` [Example 12-23, 6-[(2-tert-Butyl-6-chloropyrazolo[1,5-a]pyridin-3-yl)methyl]pyridine-2-carboxylic acid], 7.32. In the case of `O=C(O)c1cccc(Cc2c(N3CCCCC3)nn3cc(Cl)ccc23)n1` [Example 12-26, 6-[[6-Chloro-2-(piperidin-1-yl)pyrazolo[1,5-a]pyridin-3-yl]methyl]pyridine-2-carboxylic acid] it was 7.10; in that of `CC1(c2nn3cc(Cl)ccc3c2Cc2cccc(C(=O)O)n2)CC1` [Example 12-36, 6-[[6-Chloro-2-(1-methylcyclopropyl)pyrazolo[1,5-a]pyridin-3-yl]methyl]pyridine-2-carboxylic acid], 6.80; in that of `O=C(O)c1cccc(Cc2c(-c3cccc(F)c3)nn3cc(Cl)ccc23)n1` [Example 12-38, 6-[[6-Chloro-2-(3-fluorophenyl)pyrazolo[1,5-a]pyridin-3-yl]methyl]pyridine-2-carboxylic acid], 7.41. In the case of `COc1ccc2c(Cc3cccc(C(=O)O)n3)c(-c3cccc(F)c3)nn2c1` [Example 12-53, 6-[[2-(3-Fluorophenyl)-6-methoxypyrazolo[1,5-a]pyridin-3-yl]methyl]pyridine-2-carboxylic acid] it was 8.54; in that of `CS(=O)(=O)NC(=O)c1cccc(Cc2c(-c3ccccc3)nn3cc(Cl)ccc23)n1` [Example 23-1, 6-[(6-Chloro-2-phenylpyrazolo[1,5-a]pyridin-3-yl)methyl]-N-(methylsulfonyl)pyridine-2-carboxamide], 7.21. Turning to `O=c1[nH]c(-c2cccc(Cc3c(-c4ccccc4)nn4cc(Cl)ccc34)n2)no1` [Example 25-1], the negative logarithm of the IC50 (pIC50) was 7.34. To `S=c1[nH]c(-c2cccc(Cc3c(-c4ccccc4)nn4cc(Cl)ccc34)n2)no1` [Example 26-1] belongs 7.15; to `Clc1ccc2c(Cc3cccc(-c4nnn[nH]4)n3)c(-c3ccccc3)nn2c1` [Example 28-1, 6-Chloro-2-phenyl-3-[[6-(1H-tetrazol-5-yl)pyridin-2-yl]methyl]pyrazolo[1,5-a]pyridine], 8.60.
